Experimental data taken from publication PMC8776894 (Communications Biology, 2022).
Values joined by “and” are separate entries in the source; they are usually repeats but may differ in a detail not shown here. Identical values can stand only once.

Experiments:
[1] = test system: primary cortical neurons and primary microglia; assay: Primary neuron and microglia co-culture, OGD/R, ELISA of proinflammatory factors; type: cell-based, mouse
Experimental: Histological analysis. Organs such as heart, liver, kidney, and brain were excised and fixed in 10% formaldehyde for histological analysis. Their organs were collected and fixed with 4% PFA for 12-18 h, followed by dehydrating using an automatic dehydrator (Leica ASP-300S, Germany) and embedding in paraffin. Then, each sample was coronally cut (4 µm) using a rotatory microtome (Leica RM2245, Germany). The […]
Primary culture of neuron and microglia. Primary cortical neurons (1.0 × 10^5 cells per well in poly-L-lysine-coated 24-well plate) were obtained from fetal C57BL/6 mice of embryonic day 16–17.5, as previously reported1. After careful removal of meninges, cortical tissues were digested in dulbecco's modified eagle medium (DMEM, Gibco) containing 0.05% trypsin (Gibco) at 37 °C for 20 min. DMEM containing 10% FBS (Gibco) was then added to terminate the digestion. The mixture was homogenized by pipetting 120 times and was subsequently filtered with a 100-μm cell strainer (Biologix) and centrifuged at 1000 rpm for 5 min. Then, the cells were collected and resuspended by DMEM supplemented with 10% FBS (Gibco) and penicillin-streptomycin (Gibco).
The suspension was seeded into 24-well plates (10^5 cells/ml), and 4 h later, the medium was changed with Neurobasal medium (Gibco) containing 1% […] and 2% B27 supplement. […]

[2] = test system: MCAO/R mice; assay: Morris water maze test; type: in vivo, mouse; conditions: for Morris water maze latency to the platform (sheet block Fig.2h): individual animals
Experimental: To evaluate the spatial learning and memory ability of mice, the Morris water maze was performed after MCAO/R at 11, 12, 13, 14, and 15 days as described previously with minor modifications[66],[67]. […] Three trials were performed per day with the platform present and continuously detected for 4 days. Data from those trials were shown as the latency to locate the hidden platform on each day and were in indirect proportion to spatial learning abilities. A single 60 s probe test was performed on each mouse on the final day of testing. The platform was withdrawn and each mouse was placed at the same starting position in the pool and allowed to swim for 60 s. The investigator then recorded the time spent in the target quadrant, where the platform had previously been located. The latter measurements were interpreted as spatial memory.

[3] = test system: HT22 hippocampal neuron cells; assay: CCK-8 cytotoxicity in HT22 cells; conditions: CCK8 assay
[4] = test system: brain of MCAO mice; assay: Fluorescence imaging of FITC-labeled VK in brain of stroke mice; type: in vivo, mouse
Experimental: A successful MCAO model was established and these mice were used for subsequent experiments. Immediately after surgery, FITC or FITC-labeled VK were administered intravenously and mice were killed after 30 min to isolate the brain and imaged by an imaging system (IVIS Lumina II). For fluorescent imaging, the brain was immediately collected and kept in the dark for 0, 30, 60, and 90 min after the administration of VK. Frozen sections were prepared according to the above method (seen Morphological Assessment). Images were acquired by confocal microscopy (FV1000 MPE-B, Olympus).

Gly-Arg-Pro-Hyp-Gly-Phe-Ser-Pro-Phe-Arg-Ile-Asp [VK, Vespakinin-M]
protection of neurons in co-culture with microglia, proinflammatory cytokines [1]: protects neurons
Morris water maze latency to the platform (sheet block Fig.2h) ([2]; 11d after MCAO/R, VK 150 µg/kg, 60 s maximum): 46.96 and 55.37 and 56.98 and 48.52 and 58.61 and 60 and 58.12
Morris water maze latency to the platform (sheet block Fig.2h) ([2]; 11d after MCAO/R, VK 300 µg/kg, 60 s maximum): 51 and 55.8
Morris water maze latency to the platform (sheet block Fig.2h) ([2]; 12d after MCAO/R, VK 150 µg/kg): 35.17 and 36.55 and 38.29 and 31.14 and 35.03 and 46.91 and 50.97
Morris water maze latency to the platform (sheet block Fig.2h) ([2]; 12d after MCAO/R, VK 300 µg/kg): 43.25 and 49.34 and 39.87 and 44.13 and 49.62 and 33.65
Morris water maze latency to the platform (sheet block Fig.2h) ([2]; 13d after MCAO/R, VK 150 µg/kg): 12.69 and 22.64 and 25.57 and 20.24 and 33.84 and 30.46 and 33.85
Morris water maze latency to the platform (sheet block Fig.2h) ([2]; 13d after MCAO/R, VK 300 µg/kg): 24.06 and 46.35 and 29.58 and 38.44 and 42.39 and 44
Morris water maze latency to the platform (sheet block Fig.2h) ([2]; 14d after MCAO/R, VK 150 µg/kg): 8.5 and 15.36 and 20.6 and 19.38 and 15.89 and 10.11 and 29.75
Morris water maze latency to the platform (sheet block Fig.2h) ([2]; 14d after MCAO/R, VK 300 µg/kg): 18.28 and 40.48 and 16.15 and 23.59 and 39.68 and 25.37
spatial learning, escape latency ([2]; day 11–14 after MCAO/R): decreased escape latency
spatial memory, probe trial vs vehicle ([2]; day 15 after MCAO/R): more crossovers and spent more time in the platform quadrant
concentrations at which VK inhibited growth of HT22 cells [3]: 73.5 to 735 µM
accumulation in brain, in vivo imaging ([4]; FITC-labeled VK i.v. to stroke mice, brain imaged after 30 min (IVIS Lumina II)): slightly accumulate in the ischemic region
penetration of BBB and cell membrane (conclusion) ([4]; under conditions such as cerebral I/R): can cross the BBB and cell membrane
